Assay results published in US20090312367A1, “COMBINATION OF MODAFINIL AND AN ANTAGONIST OR INVERSE AGONIST OF THE H3 RECEPTOR” (Bioprojet, priority 2006, published 2009).

System: cats with MPTP-induced parkinsonism
Assay: Parkinson's disease model: wakefulness in cats with MPTP-induced parkinsonism
Type: in vivo
Details: MPTP-treated cats displaying sleepiness
Description: The inventors also investigated the combination of 1-{3-[3-(4-chlorophenyl)propoxy]propyl}piperidine and modafinil on wakefulness in cats with MPTP-induced parkinsonism. MPTP is a neurotoxin which selectively destroys dopaminergic neurons in the mesencephalon. MPTP-treated animals display sleepiness similar to that seen in many patients.

NC(=O)C[S+]([O-])C(c1ccccc1)c1ccccc1 (stereo not shown) [modafinil, 2-benzhydrylsulfinylthanamide]
wakefulness: only a modest improvement in wakefulness
